# Where “and” joins values, the source holds several entries; their conditions need not be identical. Identical values can stand only once. Like-named read-outs stand apart in the source and are kept apart here.
# What was measured:
# [1] = target: wt-BTK (Homo sapiens (Human), UniProt Q06187); test: Binding kinetics measurements (Surface Plasmon Resonance) on wt-BTK; conditions: for Tau (h) wt-BTK (Act): target residence time, SPR; for Kd: binding affinity by Surface Plasmon Resonance (SPR)
# In short: (§1)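 Using streptavidin-captured kinase, binding was followed by SPR in 1% DMSO buffer at 22° C and 30 μl/min. Five consecutive compound injections spanned 3.16-316 nM, preceded by a blank run; data were double referenced before kinetic fitting.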
# [2] = target: BTK C481S (Homo sapiens (Human), UniProt Q06187, C481S); test: Binding kinetics measurements (Surface Plasmon Resonance) on BTK C481S; conditions: for Tau (h) BTK C418S (Act): target residence time for BTK C481S, SPR; for Kd: binding affinity by Surface Plasmon Resonance (SPR)
# In short: as §1
# [3] = target: BTK T316A (Homo sapiens (Human), UniProt Q06187, T316A); test: Binding kinetics measurements (Surface Plasmon Resonance) on BTK T316A; conditions: for Tau (h) BTK T316A (Act): target residence time, SPR; for Kd: binding affinity by Surface Plasmon Resonance (SPR)
# In short: as §1
# [4] = target: BTK T474I (Homo sapiens (Human), UniProt Q06187, T474I); test: Binding kinetics measurements (Surface Plasmon Resonance) on BTK T474I; conditions: for Tau (h) BTK T474I (Act): target residence time, SPR; for Kd: binding affinity by Surface Plasmon Resonance (SPR)
# In short: as §1
# [5] = target: BTK T474S (Homo sapiens (Human), UniProt Q06187, T474S); test: Binding kinetics measurements (Surface Plasmon Resonance) on BTK T474S; conditions: for residence time: read-out: Tau (h) BTK T474S (Act); for Kd: binding affinity by Surface Plasmon Resonance (SPR)
# In short: as §1
# [6] = test system: wt-BTK, BTK C481S, BTK T474I and BTK C481S/T474I expressing 293 cells; test: Cell based washout, pBTK (Tyr223) Western blot; parameters: species or system human; conditions: 1000 nM compound 2 hours, washed twice, harvested 0-24 hours
# Method: In vitro cellular (mutant) BTK inhibition, and inhibitor wash-out Generation of human wt-BTK, BTK C481S, BTK T474I, and BTK C481S/T474I expressing GripTite 293 MSR cells.
# GripTite 293 MSR cells (Thermo Fisher, cat. no. R79507), here after referred to as 293 cells, were cultured in DMEM/F-12, GIutaMAX™ supplement medium (Thermo Fisher cat. no. 10565018) supplemented with 1% Penicilline/Streptomycine (Thermo Fisher cat. no. 15140122) 10% fetal bovine serum (Biowest, cat. no. Si181 0-500), 1× MEM Non-Essential Amino Acids (Thermo Fisher cat. no. 11140050) and 50 μg/ml Geneticin (Thermo Fisher cat. no. 10131035). Cells were transfected, with pEF6/V5-HisB (Thermo Fisher cat. no. V96120) expression vectors containing either full-length wildtype-BTK (canonical sequence NM_000061), BTK C481 S, BTK T474I or BTK C481 S/T474I (BaseClear) using Lipofectamine™ 3000 (Invitrogen). Because the stop codon at the end of the coding sequence of BTK has been conserved, the His-tag present in the expression vector is not being used. Immediately after transfection, cells were cultured in medium without Geneticin, and after 24 hours 50 μg/ml geneticin was added. 48 hours after transfection, medium was removed and replaced by medium containing both geneticin (50 μg/ml) and blasticidin (10 μg/ml) S HCl (Thermo Fisher, cat. no. A1113903). The resulting transfectants were cultured under blasticidin selection pressure for 18-35 passages to obtain stable wild-type BTK (wt-BTK), BTK C481S, BTK T474I, and BTK C481 S/T474I expressing cell pools. Stability of the (mutant) BTK expression in the 293 cell pools was confirmed by poly-acrylamide gel electrophoresis followed by Western blotting (FIG. 1A). […] For both experiments 10 μg of protein was separated on 4-12% Bis-Tris polyacrylamide gels.
# Wild-type BTK, BTK C481S, BTK T474I or BTK C481 S/T474I expressing 293 cells were lysed in lysis buffer supplemented with protease inhibitors (Merck, cat. no. P8340) and phosphatase inhibitors (Thermo Fisher, cat. no. 78426). The protein concentration was determined with a Pierce BCA protein assay kit (Thermo Fisher, cat. no. 23227). Lysates were diluted to a concentration of 1 μg/μl in NuPage® LDS Sample Buffer (Thermo Fisher, cat. no. NP0008) with 167 mM DTT (Acros Organics, cat. no. 10686841) and denatured for 5 minutes at 95° C. The samples (10 μg protein) were, together with a pre stained protein ladder (Thermo Fisher, cat. no. 26616), separated on 4-12% Bis-Tris polyacrylamide gels (Thermo Fisher, cat. no. NP0324BOX). Separated protein was subsequently transferred, in methanol free transfer buffer (Thermo Fisher, cat. no. 35045), to a nitrocellulose membrane (Thermo Fisher, cat. no. 88018). Blots were first immunologically stained with phospho-BTK (Tyr223) rabbit mAb (Cell Signaling, cat. no. 5082S), and beta-actin rabbit mAb (Cell Signaling, cat. no. 4967S), followed by peroxidase conjugated goat anti-rabbit IgG (Cell Signaling, cat. no. 7074S). Afterwards, antibodies were removed using Western-blot stripping buffer (Thermo Fisher cat. no. 46428) and staining was repeated with a (total-)BTK mouse mAb (Abnova, cat. no. MAB0798), followed by peroxidase conjugated horse anti-mouse IgG (Cell Signaling, cat. no. 7076S). For all blots the colour development was performed with ECL horseradish peroxidase substrate (BioRad, cat. no. 170-5060).
# Wild-type BTK, BTK C481S, BTK T474I, and BTK C481 S/T474I expressing 293 cells were growing exponentially when seeded in culture medium, without blasticidin, at a density of 2,000,000 cells/4 ml/well, in 25 cm^2 cell culture flasks (Greiner Bio-one, cat. no. 690175). Flasks were placed in a 37° C. C02-incubator for 16-24 hours after which 1 ml culture medium containing 5000 nM of the compound of Example 46 or Example 201, or Example 184, or Example 204, or Example 45 or (+/−) Loxo-305, or 0.05% DMSO (no compound) was added. 2 hours after addition of the inhibitors (0h) cells are either collected or washed twice with 5 ml culture medium. […]
# [7] = target: full-length wt-BTK enzyme (Homo sapiens (Human), UniProt Q06187); test: Biochemical kinase assay wt-BTK (IMAP)
# In short: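 Compound and enzyme (final 1.2 nM) were pre-incubated for 1 h at RT, after which the reaction was started with 4 μM ATP plus 50 nM fluorescein-MBP substrate peptide. After 2 h in the dark, the IMAP progressive binding reagent stopped the reaction, and phosphorylation was read by fluorescence polarization.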
# [8] = target: full-length BTK C481S enzyme (Homo sapiens (Human), UniProt Q06187, C481S); test: Biochemical kinase assay BTK C481S (IMAP)
# In short: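 IC50 values come from IMAP fluorescence polarization after quenching with progressive binding solution. The reaction ran 2 h at room temperature in the dark with 1.2 nM full-length C481S enzyme, 7 μM ATP and 50 nM fluorescein-labelled MBP-derived peptide, following a 1 h dark pre-incubation of compound with enzyme.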
# [9] = test system: wt-REC-1 mantle cell lymphoma cells; test: Cell proliferation assay wt-REC-1 (ATPlite, 72 hours); assay type: cell-based; conditions: 72 h; read-out: IC50 wt-REC-1
# In short: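 Luminescent viability read over 72 h, start-of-incubation signal recorded separately to separate growth from cell death. Percentage growth referenced to compound-free 0.3% DMSO wells; IC50 from 4-parameter logistic fit.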
# [10] = test system: REC-1 T474I cell lines; test: Cell proliferation assay REC-1 BTK T474I knock-in cells (ATPlite, 72 hours); assay type: cell-based; conditions: Homo sapiens, Rec1; 72 hours; read-out: IC50 REC-1 T474I
# In short: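 REC-1 cells carrying CRISPR knock-in mutant BTK, single-cell cloned and sequence-confirmed, were exposed to compound for 72 h and read by ATPlite luminescence. Percentage growth was calculated against the signal at the start of incubation and against untreated 0.3% DMSO wells as maximum growth.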
# [11] = test system: wt-TMD8 diffuse large B-cell lymphoma cells; test: Cell proliferation assay wt-TMD8 (ATPlite, 120 hours); assay type: cell-based; conditions: B-cell; wt-TMD8 cells, 120 hours, ATPlite; read-out: IC50 wt-TMD8
# In short: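 Readout is percentage growth from ATPlite 1Step luminescence after 5 days (120 h) compound treatment of wt-TMD8 lymphoma cells (1600/well, RPMI-1640 + 10% FBS). Time-zero signal separates growth inhibition from cell kill; 0.3% DMSO wells without compound define maximal growth.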
# [12] = SPR binding kinetics, BTK T474S, target residence time (converted)
# BTK T474S, sequence (Q06187 whole entry T474S): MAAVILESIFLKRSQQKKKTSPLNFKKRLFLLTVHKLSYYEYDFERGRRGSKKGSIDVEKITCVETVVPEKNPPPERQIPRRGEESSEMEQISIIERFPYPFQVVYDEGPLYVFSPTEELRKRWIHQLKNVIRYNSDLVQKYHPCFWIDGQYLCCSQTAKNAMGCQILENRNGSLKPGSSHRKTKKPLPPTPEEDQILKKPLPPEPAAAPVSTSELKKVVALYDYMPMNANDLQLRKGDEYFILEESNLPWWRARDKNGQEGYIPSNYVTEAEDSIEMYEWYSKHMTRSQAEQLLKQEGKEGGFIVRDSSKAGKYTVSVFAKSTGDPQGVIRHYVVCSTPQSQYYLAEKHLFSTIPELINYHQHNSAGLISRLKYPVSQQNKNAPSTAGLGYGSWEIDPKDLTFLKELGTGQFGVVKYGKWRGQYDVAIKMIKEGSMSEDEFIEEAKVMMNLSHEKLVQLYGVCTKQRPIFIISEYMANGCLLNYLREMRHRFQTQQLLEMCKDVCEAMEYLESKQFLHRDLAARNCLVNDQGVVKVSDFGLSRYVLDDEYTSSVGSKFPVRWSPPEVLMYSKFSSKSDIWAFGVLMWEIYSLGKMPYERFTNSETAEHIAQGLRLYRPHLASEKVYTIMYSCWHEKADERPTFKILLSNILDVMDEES
# BTK T474I, sequence (Q06187 whole entry T474I): as the sequence (Q06187 whole entry T474S) above, with S474I counted along it
# BTK C481S, sequence (Q06187 whole entry C481S): as the sequence (Q06187 whole entry T474S) above, with S474T, C481S counted along it
# full-length BTK C481S enzyme, sequence (Q06187 whole entry C481S): as the sequence (Q06187 whole entry T474S) above, with S474T, C481S counted along it
# BTK T316A, sequence (Q06187 whole entry T316A): as the sequence (Q06187 whole entry T474S) above, with T316A, S474T counted along it
# full-length wt-BTK enzyme, sequence (Q06187 whole entry): as the sequence (Q06187 whole entry T474S) above, with S474T counted along it
# wt-BTK, sequence (Q06187 whole entry): as the sequence (Q06187 whole entry T474S) above, with S474T counted along it
SMILES,Tau (h) wt-BTK (Act) [1] [h],Tau (h) BTK C418S (Act) [2] [h],Tau (h) BTK T316A (Act) [3] [h],Tau (h) BTK T474I (Act) [4] [h],Kd [1] [nM],Kd [2] [nM],Kd [3] [nM],Kd [4],Kd [5] [nM],IC50 [7] [nM],IC50 [8] [nM],IC50 [9] [nM],"residence time [5, 12] [h]",IC50 [11] [nM],IC50 [10] [nM],other results
"COc1ccc(F)cc1C(=O)NCc1ccc(-c2nn([C@@H](C)C(F)(F)F)c(N)c2C(N)=O)cc1 [pirtobrutinib, reference compound]",0.45,0.91,0.17,0.03,,,,,,,,,,,,target residence time on wild-type-BTK ([1]; result in words): short target residence times; target residence time on BTK C481 mutants ([2]; result in words): short target residence times; target residence time on BTK T316 mutants ([3]; result in words): short target residence times; target residence time on BTK T474 mutants (T474I) ([4]; result in words): short target residence times; residence time ([5]; target residence time): 1.25 h; target residence time on BTK T474 mutants (T474S) ([5]; result in words): short target residence times; level of phosphorylated BTK (pBTK (Tyr223)) in wash-out experiments ([6]; result in words): does not prohibit or reduce the level of phosphorylated BTK
Nc1ncc2c3c1c(-c1ccc(C(=O)Nc4cc(C(F)(F)F)ccn4)cc1)nn3[C@@H]1CCC[C@H](C1)NC(=O)CCCCC/C=C/2 [Example 46],4.87,9.36,3.23,2.58,< 5,< 5,< 5,< 2 nM,< 3,,,,,,,residence time ([5]; target residence time): 4.8 h; time for which level of phosphorylated BTK (pBTK (Tyr223)) is prohibited or reduced after wash-out ([6]; also cell lines expressing mutant BTK): at least 6 hours
COc1ccc(F)cc1C(=O)NCc1ccc(-c2nn3c4c(cnc(N)c24)/C=C/CCCCCC(=O)N[C@H](C)CC3)cc1 [Example 139],1.38,1.36,,,< 5,< 5,< 5,10 to 50 nM and < 5 nM,< 3,< 5,< 5,100 to 1000,2.11,< 100,100 to 500,
Nc1ncc2c3c1c(-c1ccc(C(=O)Nc4cc(C(F)(F)F)ccn4)cc1)nn3[C@@H]1CCC[C@H](C1)NC(=O)COC/C=C/2 [Example 49],3.20,4.75,2.20,,< 5,< 5,< 5,< 2 nM,< 3,< 5,< 5,< 100,4.63,< 100,100 to 500,

# More lines, main results first:
Tau (h) wt-BTK (Act) [1] [h],Tau (h) BTK C418S (Act) [2] [h],Tau (h) BTK T316A (Act) [3] [h],Tau (h) BTK T474I (Act) [4] [h],Kd [1] [nM],Kd [2] [nM],Kd [3] [nM],Kd [4],Kd [5] [nM],IC50 [7] [nM],IC50 [8] [nM],IC50 [9] [nM],"residence time [5, 12] [h]",IC50 [11] [nM],SMILES,IC50 [10] [nM],other results
6.80,2.91,2.28,,< 5,< 5,< 5,< 2 nM,< 3,< 5,< 5,< 100,4.41,< 100,Nc1ncc2c3c1c(-c1ccc(C(=O)Nc4cc(C(F)(F)F)ccn4)cc1)nn3[C@@H]1CCC[C@H](C1)NC(=O)COCC/C=C/2 [Example 6],100 to 500,
4.52,4.03,1.43,0.73,< 5,< 5,< 5,< 2 nM,< 3,< 5,< 5,< 100,3.77,< 100,C[C@H]1OC/C=C/c2cnc(N)c3c(-c4ccc(C(=O)Nc5cc(C(F)(F)F)ccn5)cc4)nn(c23)[C@@H]2CCC[C@H](C2)NC1=O [Example 28],100 to 500,
4.83,4.28,2.18,2.35,< 5,< 5,< 5,< 2 nM,< 3,< 5,< 5,< 100,18.9,< 100,C[C@@H]1C[C@@H](C)n2nc(-c3ccc(C(=O)Nc4cc(C(F)(F)F)ccn4)cc3)c3c(N)ncc(c32)/C=C/CCCCCC(=O)N1 [Example 172],< 100,
5.15,2.42,5.27,3.34,< 5,< 5,< 5,< 2 nM,< 3,< 5,< 5,< 100,1.47,< 100,C[C@@H]1CC(=O)N[C@@H]2CCC[C@H](C2)n2nc(-c3ccc(C(=O)Nc4cc(C(F)(F)F)ccn4)cc3)c3c(N)ncc(c32)/C=C/CCO1 [Example 157],< 100,

# — patent publication US20250074911A1, “MACROCYCLIC BTK INHIBITORS” (Crossfire Oncology Holding B.V., priority 2021, published 2025)
